From publication PMC7997578, “Design, Synthesis, Dynamic Docking, Biochemical Characterization, and in Vivo Pharmacokinetics Studies of Novel Topoisomerase II Poisons with Promising Antiproliferative Activity” (Journal of Medicinal Chemistry, 2020) come the findings set out here.

As a reminder, the fraction unbound is free concentration divided by total concentration. As a reminder, the IC50 is the concentration that inhibits the measured activity by half. For orientation: thermodynamic solubility means the concentration in solution at equilibrium with solid.

Each structure is given as a SMILES string. Values after ≈ are worked out from the molar mass of the structure shown. Where two headings read alike, the source gives them in different places.

Data set [1] can be described thus: plasma protein binding (rapid equilibrium dialysis), human. It is filed as in vitro ADME. The following applies: pH 7.4. Here is the method:
(§1) 3. Aqueous t herm odynam ic solu bili ty
(§2) The thermodynamic solubility of 3f was determined by addition of Phosphate Buffered Saline (PBS) at pH 7. 4 to an exces s of solid compound.
(§3) The assay was performed by incubation of an aliquot of 2. 5mg of test compound in 500µL of PBS at pH 7. 4. The suspension was shaken at 300 RPM for 24h at 25°C. At the end of the incubation period, the saturated solution was filtered and analyzed by UPLC/MS for the quantification of dissolved compound (in µM) by UV at a specific wavelength ( λmax of the test compound). The analyses were performed on a Waters ACQUITY UPLC/MS SQD system equipped with an ESI ion source. The analyses were run on an ACQUITY UPLC BEH C 18 column (50x2. 1mmI D, particle size 1. 7µm) with a VanGuard BEH C 18 pr e-column (5x2. 1mmID, particle size 1. 7µm), using H 2O + 0. 1% HCOOH (A) and CH 3CN + 0. 1% HCOOH (B) as mobile phase.
(§4) 4. Plasm a Protei n Bindi ng
(§5) The assay was conducted in triplicate in human and mouse plasma. An appropriate volume of plasma was spiked with a known amount of 10mM DMSO stock solution of the test compound, thus reaching the incubation concentrations of 0. 5, 1 and 5 µM. […] At this point, the supernatants were ready for injections in the UPLC -MS/ MS system. […] Plasma protein binding was calculated applying appropriate corrections to compensate for dilutions during sampling.
On the technique in general: In equilibrium dialysis free small molecules cross a membrane that holds back macromolecules.

The target in data set [2] is T1, human topoIIα (Homo sapiens, UniProt P11388).
T1 construct: purchased Inspiralis
T1 sequence (P11388 whole entry): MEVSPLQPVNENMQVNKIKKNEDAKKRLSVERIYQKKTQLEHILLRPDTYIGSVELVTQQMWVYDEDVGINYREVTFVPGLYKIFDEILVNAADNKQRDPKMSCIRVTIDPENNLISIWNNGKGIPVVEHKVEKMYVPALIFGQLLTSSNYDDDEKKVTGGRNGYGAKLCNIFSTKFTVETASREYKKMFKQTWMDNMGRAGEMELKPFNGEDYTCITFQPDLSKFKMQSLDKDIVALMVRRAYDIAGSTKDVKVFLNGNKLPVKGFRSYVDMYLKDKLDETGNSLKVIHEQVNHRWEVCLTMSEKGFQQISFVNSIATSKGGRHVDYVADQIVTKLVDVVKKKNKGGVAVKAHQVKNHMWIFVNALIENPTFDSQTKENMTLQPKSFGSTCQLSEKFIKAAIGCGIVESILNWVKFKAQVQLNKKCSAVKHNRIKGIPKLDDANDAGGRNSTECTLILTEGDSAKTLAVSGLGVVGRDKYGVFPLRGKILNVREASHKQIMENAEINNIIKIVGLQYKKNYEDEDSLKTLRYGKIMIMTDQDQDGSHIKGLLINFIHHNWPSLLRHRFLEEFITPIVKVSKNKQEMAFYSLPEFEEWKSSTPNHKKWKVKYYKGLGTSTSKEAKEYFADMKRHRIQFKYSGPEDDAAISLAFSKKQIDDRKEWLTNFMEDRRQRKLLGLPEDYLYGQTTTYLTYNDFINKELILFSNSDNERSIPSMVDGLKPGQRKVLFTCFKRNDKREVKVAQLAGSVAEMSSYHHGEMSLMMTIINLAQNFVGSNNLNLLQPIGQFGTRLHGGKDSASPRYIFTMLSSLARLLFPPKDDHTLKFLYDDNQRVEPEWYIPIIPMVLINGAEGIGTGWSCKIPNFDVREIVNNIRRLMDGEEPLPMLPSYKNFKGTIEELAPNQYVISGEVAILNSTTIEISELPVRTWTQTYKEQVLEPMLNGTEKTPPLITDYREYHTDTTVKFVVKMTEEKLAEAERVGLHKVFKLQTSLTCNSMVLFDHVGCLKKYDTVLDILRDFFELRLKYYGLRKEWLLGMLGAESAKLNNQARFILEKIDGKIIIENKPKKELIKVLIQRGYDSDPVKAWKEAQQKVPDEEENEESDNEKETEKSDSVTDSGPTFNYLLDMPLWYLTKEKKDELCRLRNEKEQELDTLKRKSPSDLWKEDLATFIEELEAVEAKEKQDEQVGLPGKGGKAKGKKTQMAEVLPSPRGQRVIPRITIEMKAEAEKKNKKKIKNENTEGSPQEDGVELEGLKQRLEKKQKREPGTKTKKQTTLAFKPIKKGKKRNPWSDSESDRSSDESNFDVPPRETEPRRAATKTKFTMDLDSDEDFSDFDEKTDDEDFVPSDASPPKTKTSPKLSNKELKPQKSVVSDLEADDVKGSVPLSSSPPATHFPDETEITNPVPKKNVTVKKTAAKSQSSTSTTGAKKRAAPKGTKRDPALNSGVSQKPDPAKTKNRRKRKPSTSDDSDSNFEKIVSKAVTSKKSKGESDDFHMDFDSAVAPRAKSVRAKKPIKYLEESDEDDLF
Kind of data set: topoII decatenation assay (Inspiralis). The format is biochemical. Here is the method:
We measured the inhibitor activity of our new compounds against human topoIIα, using a topoII decatenation assay (Table 1).
The activity of topoIIα was measured using a decatenation assay (Inspiralis) following the manufacturer’s instructions. Compounds were dissolved in DMSO and used at a concentration ranging from 200 to 1 μM. Final DMSO concentration in the assay was ≤1%. Reaction mixtures were incubated for 30 min at 37 °C and terminated with STEB buffer (40% (w/v) sucrose, 100 mM Tris-HCl, pH 8, 1 mM EDTA, 0.5 mg/mL bromophenol blue). Reaction products were resolved by electrophoresis in 1% agarose gels containing SYBR Safe DNA stain (Invitrogen), scanned, and quantified using the ChemiDoc system (BioRad). IC50 values were obtained with GraphPad Prism software (version 5.03) using the band intensities of the dose–response gels. Values are reported as the mean ± SD of two independent experiments.

In data set [3] the test system is HeLa cells. Nature of the data set: cell viability MTT assay, HeLa. The following applies: HeLa cervical cancer cells, mean ± SD of two experiments, read-out: HeLa antiproliferative activity IC50. It is filed as cell-based, human. Here is the method: The antiproliferative activity of all compounds was evaluated in (i) DU145, an androgen-independent prostate cancer cell line; (ii) HeLa, a cervical cancer cell line; and (iii) A549, a lung adenocarcinoma cell line (Table 1). […] Undoubtedly, this preliminary cytotoxicity data will need further characterization, also in relation to the in vitro activity of these compounds.
Human cancer cell lines A549 (lung adenocarcinoma, ATCC CCL-185), DU-145 (androgen-independent prostate cancer, ATCC HTB-81), and HeLa (cervical carcinoma, ATCC CCL-2) were obtained from ATCC. Cells were routinely grown in minimal essential medium containing Eagle’s salts and L-glutamine supplemented with 10% heat-inactivated FBS in a humidified atmosphere of 5% CO2 at 37 °C. To assess the antiproliferative activity of the compounds, cells were seeded at a density of 2500 cells/well (HeLa) or 5000 cells/well (A549, DU-145) in 96-well plates, and cell viability was measured using the MTT assay as described previously.[39] Values are reported as the mean ± SD of two independent experiments.
In general terms: Tetrazolium assays rely on reduction of a dye to a coloured formazan, in cell work by metabolically active cells.

A short description of data set [4]: aqueous thermodynamic solubility. The format is physicochemical. The following applies: PBS pH 7.4, 24 h, 25°C. Here is the method:
as §1, §2, §3, §4, §5

Regarding `O=C(Nc1cccc(OC(F)(F)F)c1)c1c(O)n(-c2ccccc2)c(=S)n(-c2ccccc2)c1=O` [3f, 6-Hydroxy-4-oxo-1,3-diphenyl-2-thioxo-N-(3-(trifluoromethoxy)phenyl)-1,2,3,4-tetrahydropyrimidine-5-carboxamide], in data set [1], the fraction unbound at 3 h was under 0.01. The 50% inhibitory concentration (IC50) in data set [2] (human topoIIα decatenation assay, mean ± SD of two independent experiments, read-out: IC50) was 7.3 ± 1.5 µM; in data set [3] it was 3.8 ± 0.3 µM; in data set [3] (Homo sapiens, HeLa), under 5 µM. Further, the “fold increased activity compared to ARN16267” value in data set [2] (topoIIα decatenation IC50 versus ARN16267) was 2 fold. Besides, in data set [4], the thermodynamic solubility at 24 h was found to be 30 µM (≈ 15 µg/mL).
